Assay: xn = mol fraction of the nth substance listed
Settings: 100 kPa, Liquid; for viscosity: Concentric cylinders viscometry; for mass density: Vibrating tube method

CCCCOC(C)=O [butyl ethanoate] + CCCCCCCCO
Settings	mass density [kg/m3]	viscosity [mPa·s]
293.15 K, x1 = 0.0809	828.3	8.07
293.15 K, x1 = 0.1595	831.8	7.17
293.15 K, x1 = 0.2399	835.5	6.32
293.15 K, x1 = 0.3499	840.9	5.29
293.15 K, x1 = 0.4399	845.6	4.54
293.15 K, x1 = 0.5626	852.5	3.59
293.15 K, x1 = 0.6499	857.6	2.97
293.15 K, x1 = 0.7401	863.2	2.37
293.15 K, x1 = 0.8499	870.4	1.69
293.15 K, x1 = 0.9395	876.6	1.12
293.15 K, x1 = 1	881.1	0.732
298.15 K, x1 = 0.0809	824.6	6.69
298.15 K, x1 = 0.1595	827.9	5.9
298.15 K, x1 = 0.2399	831.5	5.19
298.15 K, x1 = 0.3499	836.7	4.32
298.15 K, x1 = 0.4399	841.3	3.7
298.15 K, x1 = 0.5626	847.9	2.93
298.15 K, x1 = 0.6499	853	2.43
298.15 K, x1 = 0.7401	858.4	1.96
298.15 K, x1 = 0.8499	865.5	1.43
298.15 K, x1 = 0.9395	871.6	0.99
298.15 K, x1 = 1	876	0.677
303.15 K, x1 = 0.0809	820.8	5.59
303.15 K, x1 = 0.1595	823.9	4.92
303.15 K, x1 = 0.2399	827.4	4.3
303.15 K, x1 = 0.3499	832.4	3.57
303.15 K, x1 = 0.4399	836.8	3.06
303.15 K, x1 = 0.5626	843.2	2.42
303.15 K, x1 = 0.6499	848.1	2.01
303.15 K, x1 = 0.7401	853.4	1.63
303.15 K, x1 = 0.8499	860.3	1.22
303.15 K, x1 = 0.9395	866.4	0.88
303.15 K, x1 = 1	870.9	0.628
308.15 K, x1 = 0.0809	817.1	4.72
308.15 K, x1 = 0.1595	820.1	4.15
308.15 K, x1 = 0.2399	823.4	3.61
308.15 K, x1 = 0.3499	828.1	2.99
308.15 K, x1 = 0.4399	832.3	2.56
308.15 K, x1 = 0.5626	838.5	2.05
308.15 K, x1 = 0.6499	843.2	1.73
308.15 K, x1 = 0.7401	848.4	1.42
308.15 K, x1 = 0.8499	855.3	1.08
308.15 K, x1 = 0.9395	861.2	0.79
308.15 K, x1 = 1	865.7	0.585
313.15 K, x1 = 0.0809	813.3	4.01
313.15 K, x1 = 0.1595	815.9	3.52
313.15 K, x1 = 0.2399	818.9	3.06
313.15 K, x1 = 0.3499	823.3	2.53
313.15 K, x1 = 0.4399	827.3	2.17
313.15 K, x1 = 0.5626	833.3	1.75
313.15 K, x1 = 0.6499	838	1.48
313.15 K, x1 = 0.7401	843.1	1.24
313.15 K, x1 = 0.8499	849.9	0.95
313.15 K, x1 = 0.9395	855.8	0.71
313.15 K, x1 = 1	860.5	0.546
318.15 K, x1 = 0.0809	809.4	3.44
318.15 K, x1 = 0.1595	811.9	3.01
318.15 K, x1 = 0.2399	814.6	2.62
318.15 K, x1 = 0.3499	818.8	2.17
318.15 K, x1 = 0.4399	822.6	1.87
318.15 K, x1 = 0.5626	828.4	1.51
318.15 K, x1 = 0.6499	832.9	1.3
318.15 K, x1 = 0.7401	838	1.08
318.15 K, x1 = 0.8499	844.7	0.84
318.15 K, x1 = 0.9395	850.7	0.65
318.15 K, x1 = 1	855.3	0.512
323.15 K, x1 = 0.0809	805.6	2.97
323.15 K, x1 = 0.1595	807.8	2.6
323.15 K, x1 = 0.2399	810.4	2.26
323.15 K, x1 = 0.3499	814.3	1.86
323.15 K, x1 = 0.4399	817.9	1.6
323.15 K, x1 = 0.5626	823.5	1.3
323.15 K, x1 = 0.6499	828	1.12
323.15 K, x1 = 0.7401	832.9	0.96
323.15 K, x1 = 0.8499	839.5	0.76
323.15 K, x1 = 0.9395	845.5	0.6
323.15 K, x1 = 1	850.1	0.485

— the NIST ThermoML archive (doi:10.1021/acs.jced.8b00524)
